# Experimental data taken from patent US7595395B2, “Gabaergic agents to treat memory deficits” (priority 2005, dated 2009).
# Read-outs that look alike come from different tables or passages of the source.
# How the values were obtained:
# [1] = molecular target: T1, α3β3γ2 benzodiazepine receptor GABA(A) isoform (UniProt P18507+P34903); experiment: Radioligand competition binding, α3β3γ2 BzR/GABA(A) isoform; design: species or system human and rat
# T1 sequence (P18507 1-475): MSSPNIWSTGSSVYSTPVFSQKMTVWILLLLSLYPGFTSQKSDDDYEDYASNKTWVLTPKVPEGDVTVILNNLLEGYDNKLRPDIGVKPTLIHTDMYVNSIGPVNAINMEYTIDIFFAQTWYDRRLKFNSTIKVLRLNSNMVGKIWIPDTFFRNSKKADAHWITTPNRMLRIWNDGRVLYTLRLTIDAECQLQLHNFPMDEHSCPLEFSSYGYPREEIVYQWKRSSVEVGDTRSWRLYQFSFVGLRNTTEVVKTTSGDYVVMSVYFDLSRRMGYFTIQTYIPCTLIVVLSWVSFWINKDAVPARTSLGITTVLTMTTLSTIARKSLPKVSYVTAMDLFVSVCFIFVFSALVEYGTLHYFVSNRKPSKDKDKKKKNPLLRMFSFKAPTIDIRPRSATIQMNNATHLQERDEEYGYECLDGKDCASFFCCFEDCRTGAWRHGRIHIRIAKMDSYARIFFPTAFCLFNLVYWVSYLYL
# T1 sequence (P34903 1-492): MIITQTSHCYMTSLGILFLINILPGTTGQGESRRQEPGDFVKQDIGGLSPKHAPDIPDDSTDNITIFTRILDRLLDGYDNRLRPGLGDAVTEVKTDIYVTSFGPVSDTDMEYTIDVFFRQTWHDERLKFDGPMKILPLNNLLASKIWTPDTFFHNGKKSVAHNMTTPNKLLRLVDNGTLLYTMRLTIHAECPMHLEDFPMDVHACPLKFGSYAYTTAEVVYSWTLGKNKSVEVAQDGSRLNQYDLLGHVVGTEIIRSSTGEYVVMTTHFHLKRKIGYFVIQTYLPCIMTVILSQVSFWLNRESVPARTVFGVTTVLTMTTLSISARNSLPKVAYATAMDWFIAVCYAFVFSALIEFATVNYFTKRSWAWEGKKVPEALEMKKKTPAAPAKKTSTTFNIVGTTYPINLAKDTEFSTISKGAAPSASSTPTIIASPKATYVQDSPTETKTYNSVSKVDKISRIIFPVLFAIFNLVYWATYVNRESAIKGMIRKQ
# Procedure: The affinity of all ligands at the 6 major recombinant GABAA/BzR subtypes was measured by competition for [^3H]Ro15-1788 binding to HEK-T cells expressing both human and rat GABAA/Bz receptors of composition α1β2γ2 (α1), α2β2γ2 (α2), α3β2γ2 (α3), α4β2γ2 (α4), α5β2γ2 (α5) and α6β2γ2 (α6). It is well known that the β2 and β3 subunits can be interchanged with no effect on Bz ligand affinity or efficacy. […] These studies are similar to those performed in the laboratory of Bryan Roth who has already expressed the receptors employing the work of Kucken et. al. and Gray et. al.
# In brief, for membrane preparations, the cells were scraped on to the ice and diluted into 5 mL of phosphate buffered saline (pH=7.40) and cells pelleted by centrifugation for 5 min. at 4° C. The pellet was resuspended in 1 mL of 50 mM Tris-acetate buffer (pH 7.4) and centrifuged at 18,000 g for 20 min. […] Each pellet were diluted to 6 mL and then 100 μL of membranes were incubated with approximately 1 nM final concentration of [^3H]Ro 15-1788 in a total volume of 250 μL together with serial dilutions of test compound for 90 min. on ice. The membranes were harvested in polyethyleneimine-pretreated Whatman GF/C filters and after drying and addition of scintillation cocktail, counted in a scintillation counter. The cpm retained on the filters was plotted against log concentration (M) and fitted to one site competition equation to obtain the Ki using Graphpad Prizm (V4.0) using the Cheng-Prusoff approximation.
# Tail flick assay = details: in vivo
# α1β3γ2 GABAA receptor = α1β3γ2 GABAA receptor (Rattus norvegicus, UniProt P18508+P62813); experiment: Two-electrode voltage clamp in Xenopus oocytes, α1β3γ2; details: oocytes
# Sequence of α1β3γ2 GABAA receptor (P62813 28-455): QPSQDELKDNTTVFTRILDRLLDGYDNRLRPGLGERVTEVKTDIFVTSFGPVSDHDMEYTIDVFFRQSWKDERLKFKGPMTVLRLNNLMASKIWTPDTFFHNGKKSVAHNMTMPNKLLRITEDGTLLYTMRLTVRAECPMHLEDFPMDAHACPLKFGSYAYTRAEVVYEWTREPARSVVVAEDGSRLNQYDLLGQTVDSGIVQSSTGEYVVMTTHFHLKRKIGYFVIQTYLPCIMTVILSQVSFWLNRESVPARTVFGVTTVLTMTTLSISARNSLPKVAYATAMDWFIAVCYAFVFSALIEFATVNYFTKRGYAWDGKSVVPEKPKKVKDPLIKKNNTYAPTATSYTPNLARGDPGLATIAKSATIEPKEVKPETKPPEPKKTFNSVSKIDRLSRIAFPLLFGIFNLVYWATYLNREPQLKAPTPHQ
# Sequence of α1β3γ2 GABAA receptor (P63079 26-473 partner): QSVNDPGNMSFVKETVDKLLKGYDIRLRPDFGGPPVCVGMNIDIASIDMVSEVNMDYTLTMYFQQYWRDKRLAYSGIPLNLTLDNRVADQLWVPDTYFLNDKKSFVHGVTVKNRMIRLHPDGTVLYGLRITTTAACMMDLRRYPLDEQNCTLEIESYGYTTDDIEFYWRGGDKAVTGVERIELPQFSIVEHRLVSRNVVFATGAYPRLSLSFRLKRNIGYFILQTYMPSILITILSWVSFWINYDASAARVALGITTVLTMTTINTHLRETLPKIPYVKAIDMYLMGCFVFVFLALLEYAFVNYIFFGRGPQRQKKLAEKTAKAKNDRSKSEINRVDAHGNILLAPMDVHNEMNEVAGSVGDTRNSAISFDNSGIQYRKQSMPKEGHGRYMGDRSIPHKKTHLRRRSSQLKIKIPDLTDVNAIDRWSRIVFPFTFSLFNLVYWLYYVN
# Sequence of α1β3γ2 GABAA receptor (P18508 39-466): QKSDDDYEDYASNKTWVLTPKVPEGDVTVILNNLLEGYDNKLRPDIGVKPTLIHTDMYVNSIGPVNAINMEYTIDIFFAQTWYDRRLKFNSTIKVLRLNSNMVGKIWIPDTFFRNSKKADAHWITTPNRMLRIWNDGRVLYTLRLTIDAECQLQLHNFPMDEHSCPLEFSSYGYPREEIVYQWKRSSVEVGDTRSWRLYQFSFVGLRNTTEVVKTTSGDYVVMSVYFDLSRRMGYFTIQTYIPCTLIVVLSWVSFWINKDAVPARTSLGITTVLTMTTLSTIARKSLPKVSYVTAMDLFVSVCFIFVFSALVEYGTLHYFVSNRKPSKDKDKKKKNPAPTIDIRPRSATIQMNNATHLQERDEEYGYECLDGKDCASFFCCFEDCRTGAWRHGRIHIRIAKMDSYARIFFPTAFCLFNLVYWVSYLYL
# [2] = read-out: Ki α3, Table I, means of two determinations
# [3] = read-out: α3, untitled table of lead compounds, unit inferred
SMILES,"Ki [1, 2] [µM]","Ki [1, 3] [µM]",analgesic effect in tail flick assay (in words) (Tail flick assay),efficacy / modulation of GABA elicited currents at α1 (in words) (α1β3γ2 GABAA receptor)
"COCc1ncn2c1CN(C)C(=O)c1cc(Cl)ccc1-2 [PWZ-029, methyl(8-chloro-5,6-dihydro-5-methyl-6-oxo-4H-imidazo[1,5-α][1,4]benzodiazepin-3-yl)methyl ether]",> 0.3,> 0.3,–,–
"CCc1ccc2c(c1)C(=O)N(C)Cc1c(C(=O)OCCCOC(=O)c3ncn4c3CN(C)C(=O)c3cc(CC)ccc3-4)ncn1-2 [XLi356, 1,3-Bis(8-ethyl-5,6-dihydro-5-methyl-6-oxo-4H-imidazo[1,5a][1,4]benzodiazepine-3-carboxy)propyl diester]",–,–,No analgesic effect,no activity
"CCOC(=O)c1ncn2c1CN=C(c1ccccc1)c1cc(-c3ccccc3)ccc1-2 [DM-I-81, Ethyl 8-phenyl-6-phenyl-4H-benzo[f]imidazo[1,5-a][1,4]diazepine-3-carboxylate]",> 2,> 2,–,very poor efficacy
